This is an account of results in patent publication US20080167272A1, “Thalidomide metabolites and methods of use” (Auckland Uniservices Limited, priority 2005, published 2008).

Series [1] relates to TNF. Briefly: Modulation of TNF production in Colon 38 tumour-bearing mice (serum and tumour, ELISA). Format: in vivo. The note with it: 3 h. The method, then:
Mice with Colon 38 tumours, approximately 5-7 mm in diameter, were divided into groups of 5. One group was untreated. Other groups were treated with DMXAA (25 mg/kg) alone; DMXAA (25 mg/kg)+thalidomide (100 mg/kg), DMXAA (25 mg/kg)+PG (100 mg/kg), DMXAA (25 mg/kg)+PiG (100 mg/kg), DMXAA (25 mg/kg)+CG (100 mg/kg), DMXAA (25 mg/kg)+thalidomide (20 mg/kg), DMXAA (25 mg/kg)+CG (20 mg/kg), and thalidomide, PG, PiG or CG only at 100 and 200 mg/kg. Three hours after treatment, mice were anaesthetized with halothane (NZ Pharmacology Ltd., Christchurch, New Zealand), and blood was collected from the ocular sinus and tumours were excised. Blood was coagulated overnight at 4° C., and then centrifuged for 30 min at 2,000×g and 4° C., and the serum was removed and stored at −80° C. until use. Tumour tissues were weighed and homogenized in 1.5 ml α-minimal essential medium (Gibco, Grand Island, N.Y., USA). The homogenates were centrifuged (2,000×g, 30 min, 4° C.) and supernatant was removed and re-centrifuged (14,000×g, 30 min, 4° C.). The final supernatants were removed and kept at −80° C. until use. TNF levels in serum and supernatants derived from tumour homogenates were assayed for TNF as described in section 4 (below).
(§1) TNF was assayed using a commercially available ELISA kit (OpEIA human or murine TNF kit, PharMingen, San Diego, Calif., USA), according to the manufacturer's instructions. Briefly, samples (100 μl/well) in duplicate together with a serial dilution of TNF (31.25-2000 pg/ml) for the standard curve, were added to flat-bottom 96-well plates pre-coated with immobilised monoclonal anti-TNF antibody and incubated at room temperature for 2 h. The wells were then washed, biotinylated polyclonal antibody to TNF was added, followed by peroxidase-labelled streptavidin, and incubated at room temperature for 1 h. The wells were washed again, and the substrate, tetramethylbenzidine and hydrogen peroxide was added and after 10 min the reaction was stopped with 2 N sulphuric acid. The absorbance at 450 nm was determined using a microtitre plate reader.
(In general: An ELISA detects its analyte on a solid surface through an enzyme-linked reagent.)

In series [2] the test system is TNF. Briefly: LPS-induced TNF production by HPBL in culture. The following applies: HPBL, LPS 100 pg/ml, 12 h; all concentrations tested (PG, PiG: 1, 5, 25 μg/ml); FIG. 5. It is filed as cell-based, human. The method, then: Blood (20 ml) each from seven healthy volunteers was collected into heparinized tubes, and was overlayed on top of 10 ml of Ficoll-Paque Plus (Amersham Biosciences AB, Uppsala, Sweden) in 50 ml Falcon polypropylene conical tubes (Becton Dickson Labware, Franklin Lakes, N.J.). The tubes were centrifuged for 30 min at 300×g and 4° C., and the layer of cells was removed and re-suspended at 1×10^6 cells/ml in A-MEM medium supplemented with foetal bovine serum (Moregate BioTech Ltd, Hamilton, New Zealand) (10% v/v), streptomycin sulphate (100 μg/ml) and penicillin-G (100 units/ml) (Sigma, St Louis, Mo., USA). Cells were added to a 24-well plate (Nunc, Kamstrup, Roskilde, Denmark) with LPS (Escherichia coli serotype 055:B5; Sigma, St. Louis, Mo., USA) plus thalidomide or CG at 0.04, 0.2, 1, 5, 25 & 100 μg/ml; or PG or PiG at 1, 5 & 25 μg/ml in a final volume of 1 ml. Wells containing cells only and cells plus LPS only were included as controls. After 12 hours of incubation, supernatants were removed and assayed immediately for TNF as described in section 4.
as §1

The subject of a further series is Colon 38 tumours. In words: Tumour growth delay, Colon 38 tumours in mice, combination with DMXAA. The following applies: for tumour volumes at 21 days after treatment compared with DMXAA alone: FIG. 2; for inhibition of tumour growth compared with DMXAA alone: 100 mg/kg i.p. co-administered with DMXAA 25 mg/kg, FIG. 1A. Format: in vivo. From the text: Mice (C57B1/6 bred at the Animal Resources Unit, University of Auckland, New Zealand) were implanted with Colon 38 tumours, obtained originally from the Mason Research Institute (Auckland, New Zewaland) by transferring 1 mm^3 pieces of the tumour into a subcutaneous opening in the left flank of anaesthetized mice. The mice with tumours were used for growth delay experiments when tumours had reached approximately 3-5 mm in diameter. Mice were divided into 10 groups, an untreated control group, a group treated intraperitoneally (i.p.) with DMXAA (5,6-dimethylxanthenone-4-acetic acid, synthesized at the Auckland Cancer Society Research Centre—ACSRC (Auckland, New Zealand) at 25 mg/kg only, and 8 groups treated with DMXAA together with the hydrolytic thalidomide metabolites PG, PiG, CG also synthesized at the ACSRC as previously described (Lu et al, 2003), or thalidomide at 100 mg/kg, or together with CG or thalidomide at 20 mg/kg or 4 mg/kg. DMXAA was dissolved in saline at 2.5 mg/ml and injected i.p. into mice in a volume of 10 μl/g body weight. Thalidomide, PG, PiG and CG were dissolved in dimethylsulphoxide at 40, 8 or 1.6 mg/ml (for dosages of 100, 20, 4 mg/kg respectively) and injected i.p. in a volume of 2.5 μl/g body weight. Tumours were measured 2-3 times weekly after treatment and tumour volumes were calculated as 0.52×a^2×b, where a and b are the minor and major axes of the tumour. The arithmetic means and standard errors were calculated for each point, counting cured animals as having zero tumour volume, and expressed as fractions of the pre-treatment volume. Growth delay was determined as the difference in the number of days required for the tumour to reach four times the pre-treatment volume.

For series [3], the system named is ECV304 cells. Briefly: MTT cytotoxicity assay. It is filed as cell-based, human. The note with it: 18 h, 2-250/g/ml, vs untreated or DMSO-treated cultures. The method, then: The 3-(4,5-dimethylthiazol-2-yl)-2,5-diphenyl tetrazolium bromide (MTT) assay, which measures mitochondrial metabolic activity, was used to determine cell viability (Mosmann, 1983). Cells (4×10^3/well) were cultured with various concentrations of thalidomide, CG, PG and PiG in a final volume of 100 μl M199 medium (Gibco, Grand Island, N.Y., USA) supplemented with 10% foetal bovine serum ([…] streptomycin sulphate and 100 units/ml penicillin-G (Sigma, St Louis, Calif., USA) in flat-bottomed 96-well plates at 37° C. at 5% CO2 for 18 h. At the end of the incubation period, 10 μl of MTT (Sigma, St. Louis, Mo., 5 mg/ml in PBS) was added to each well, and the cells were further incubated for 2 h. The supernatants were then removed and the formazan crystals in the cells were dissolved by the addition of 100 μl of DMSO per well, and the absorbance at 590 nm was read using a plate reader. Each concentration of drug was tested in triplicate wells, and the mean ±standard error of the mean (SEM) was calculated.
(In general: Formazan colour is commonly taken as a measure of viable cells.)

Series [4] has as its system ECV304 cells. In words: Inhibition of tube formation of ECV304 cells in Matrigel. It is filed as cell-based, human. The method, then: Each well in a 24-well plate was coated with 300 μl of Matrigel (Becton Dickinson, San Jose, Calif., USA) which was allowed to solidified at 37° C. for 1 h. […] After 15-18 h of incubation at 37° C. at 5% CO2, the culture supernatant was aspirated. The cells were fixed and stained using Diff-Quick staining kit (Dade AG, Dudingen, Switzerland) according to the manufacturer's instructions. After removal of the staining solution the stained cells in each well were photographed along with a measuring ruler placed at the bottom edge of the photographing field (Olympus Camedia C-5050 professional digital camera, Olympus Optical, Tokyo, Japan). The total length of the tubes formed in the photographs was measured and divided by the area of the field (mm/mm^2).

The mark [5] stands for this setting: 100 mg/kg co-administered with DMXAA 25 mg/kg.
[6] abbreviates: all concentrations tested, FIG. 6.
Setting [7] is: 100 mg/kg co-administered with DMXAA 25 mg/kg, FIG. 3A.
The mark [8] stands for this setting: 100 mg/kg co-administered with DMXAA 25 mg/kg, FIG. 3B.

Regarding `Cc1ccc2c(=O)c3cccc(CC(=O)O)c3oc2c1C` [DMXAA, 5,6-dimethylxanthenone-4-acetic acid, reference compound], the “increase in serum TNF activity above control untreated mice” value with TNF [1] (DMXAA alone 25 mg/kg, FIG. 3A) is listed as 20 fold. In addition, the “increase in tumour TNF activity above control untreated mice” value in the series with TNF [1] (DMXAA alone 25 mg/kg, FIG. 3B) is recorded as 50 fold.
Regarding `NC(=O)CCC(C(=O)O)N1C(=O)c2ccccc2C1=O` (stereo not shown) [PG, 5-Amino-2-(1,3-dioxo-1,3-dihydro-2H-isoindol-2-yl)-5-oxopentanoic acid], in the series on TNF [2], the “effect on LPS-induced TNF production” value was “no significant effect”. Moreover, in the series with Colon 38 tumours (setting [5]), the “tumour volumes at 21 days after treatment compared with DMXAA alone” value (“tumour volumes … compared with DMXAA alone” for short) is “no significant difference in tumour volumes”. For the same molecule, the “inhibition of tumour growth compared with DMXAA alone” value in the series with Colon 38 tumours is recorded as “did not inhibit tumour growth above that of DMXAA alone”. In addition, in the series with ECV304 cells [3], the “toxicity (cell viability, MTT)” value was “No toxicity was observed”. Further, the “inhibition of tube formation” value in the series on ECV304 cells [4] (setting [6]) is given as “did not show any inhibition”. Further, the “effect on DMXAA-induced serum TNF level” value with TNF [1] (setting [7]) was “had no effect”. Further, the “effect on DMXAA-induced tumour TNF level” value in the series on TNF [1] (setting [8]) is “had no effect”.
Regarding `NC(=O)C(CCC(=O)O)N1C(=O)c2ccccc2C1=O` (stereo not shown) [PiG, 5-Amino-4-(1,3-dioxo-1,3-dihydro-2H-isoindol-2-yl)-5-oxopentanoic acid], the “effect on LPS-induced TNF production” value in the series with TNF [2] was “no significant effect”. The “tumour volumes … compared with DMXAA alone” value with Colon 38 tumours (setting [5]) is reported as “no significant difference in tumour volumes”. For the same molecule, in the series with Colon 38 tumours, the “inhibition of tumour growth compared with DMXAA alone” value is listed as “did not inhibit tumour growth above that of DMXAA alone”. The “toxicity (cell viability, MTT)” value in the series on ECV304 cells [3] is reported as “No toxicity was observed”. Besides, in the series with ECV304 cells [4] (setting [6]), the “inhibition of tube formation” value is “did not show any inhibition”. Moreover, the “effect on DMXAA-induced serum TNF level” value in the series with TNF [1] (setting [7]) is “had no effect”. In addition, the “effect on DMXAA-induced tumour TNF level” value in the series on TNF [1] (setting [8]) is listed as “had no effect”.
What is called inhibition is the drop in the measured response relative to a control, in per cent. The low end stands for a response near the control, the high end for a response far below the control. For the molecule `O=C1CCC(N2C(=O)c3ccccc3C2=O)C(=O)N1` (stereo not drawn) [thalidomide, α-phthalimidoglutarimide], in the series on TNF [2], the “effect on LPS-induced TNF production” value is reported as “significantly decreased LPS-induced TNF levels in a dose-dependent manner”. Moreover, in the series with Colon 38 tumours (4 mg/kg co-administered with DMXAA 25 mg/kg, FIG. 1C), the “potentiation of DMXAA-induced anti-tumour effects” value is “neither CG nor thalidomide showed potentiation”. Also, the “tumour volumes … compared with DMXAA alone” value in the series with Colon 38 tumours (4 mg/kg co-administered with DMXAA 25 mg/kg) is “no significant difference”; with Colon 38 tumours (setting [5]) it was “significantly smaller tumour volumes than those treated by DMXAA alone”. In addition, the “inhibition of tumour growth compared with DMXAA alone” value in the series with Colon 38 tumours is listed as “greater inhibition of tumour growth than that of DMXAA alone”. Further, the “toxicity (cell viability, MTT)” value with ECV304 cells [3] was “No toxicity was observed”. For the same molecule, in the series with ECV304 cells [4] (250 μg/ml, FIGS. 6 & 7), the “inhibition of tube formation” value is on record as “Near complete inhibition”. In the series with ECV304 cells [4] (Homo sapiens, ECV-304, lowest concentration tested, 2 μg/ml, FIG. 7), the inhibition at 2 µg/mL is 38 to 41%. Further, the “effect on DMXAA-induced serum TNF level” value in the series with TNF [1] (20 mg/kg co-administered with DMXAA 25 mg/kg, FIG. 3A) is on record as “reduced DMXAA-induced TNF levels in serum”; with TNF [1] (setting [7]), “reduced DMXAA-induced TNF levels in serum”. Besides, the “effect on DMXAA-induced tumour TNF level” value in the series on TNF [1] (20 mg/kg co-administered with DMXAA 25 mg/kg, FIG. 3B) was “no significant effect”; in the series with TNF [1] (setting [8]) it was “no significant effect”.
